Laboratory results from ChEMBL document CHEMBL1144945, “Development of progesterone receptor antagonists from 1,2-dihydrochromeno[3,4-f]quinoline agonist pharmacophore” (Bioorg Med Chem Lett, 2003).
Active and inactive are the calls of the source.

Legend:
[1] = biological target: T1, Progesterone receptor (Homo sapiens) (UniProt P06401); test: Agonist efficacy for human progesterone receptor in T47D human breast cancer cell; not active (<20% efficacy and/or >10 mM potency); assay type: functional, cell-based
T1 sequence (whole entry): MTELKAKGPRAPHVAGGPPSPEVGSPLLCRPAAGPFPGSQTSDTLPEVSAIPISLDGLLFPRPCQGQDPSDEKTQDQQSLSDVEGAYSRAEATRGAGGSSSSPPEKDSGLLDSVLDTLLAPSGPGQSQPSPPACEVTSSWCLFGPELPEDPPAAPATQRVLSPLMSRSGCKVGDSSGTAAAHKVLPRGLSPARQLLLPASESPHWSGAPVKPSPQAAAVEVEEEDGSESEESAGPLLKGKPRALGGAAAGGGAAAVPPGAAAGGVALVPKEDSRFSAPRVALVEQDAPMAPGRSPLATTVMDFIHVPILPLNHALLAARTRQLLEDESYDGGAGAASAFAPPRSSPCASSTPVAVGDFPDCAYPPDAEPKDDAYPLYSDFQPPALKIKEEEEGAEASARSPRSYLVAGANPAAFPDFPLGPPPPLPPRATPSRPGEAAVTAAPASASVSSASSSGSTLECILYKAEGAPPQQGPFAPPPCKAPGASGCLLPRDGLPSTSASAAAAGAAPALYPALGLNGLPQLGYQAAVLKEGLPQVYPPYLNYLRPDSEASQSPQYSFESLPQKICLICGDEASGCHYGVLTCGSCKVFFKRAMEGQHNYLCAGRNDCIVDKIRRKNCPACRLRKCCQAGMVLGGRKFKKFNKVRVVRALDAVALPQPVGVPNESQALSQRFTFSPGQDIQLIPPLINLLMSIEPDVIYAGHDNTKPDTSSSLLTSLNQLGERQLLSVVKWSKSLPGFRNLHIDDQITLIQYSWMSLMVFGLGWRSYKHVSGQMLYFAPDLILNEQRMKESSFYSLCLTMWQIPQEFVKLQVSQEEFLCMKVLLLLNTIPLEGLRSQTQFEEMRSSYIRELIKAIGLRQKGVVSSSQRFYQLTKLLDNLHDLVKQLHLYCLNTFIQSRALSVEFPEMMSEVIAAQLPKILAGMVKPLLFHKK

[2] = biological target: T2, Progesterone receptor (Homo sapiens, UniProt P06401); test: Effective concentration for human progesterone in T47D human breast cancer cell; not active (<20% efficacy and/or >10 mM potency); assay type: cell-based; details: cancer cell lines
T2 sequence (P06401 whole entry): T1 sequence (whole entry)

[3] = biological target: T2, Progesterone receptor
Description: Antagonistic activity at human progesterone receptor in CV-1 cells.

[4] = biological target: T2, Progesterone receptor; remark: listed apart in the source
Description: Inhibition of human progesterone receptor activation in T47D human breast cancer cell.

[5] = biological target: T2, Progesterone receptor; test: Effective concentration for antagonistic activity towards human progesterone receptor in CV-1 cells; not active (<20% efficacy and/or >10 mM potency); assay type: functional, cell-based
[6] = biological target: T2, Progesterone receptor; test: Inhibition of human progesterone receptor in T47D human breast cancer cell; not active (<20% efficacy and/or >10 mM potency); assay type: cell-based
[7] = biological target: T1, Progesterone receptor (Homo sapiens); test: Antagonist efficacy for human progesterone receptor in CV-1 cells; not active (<20% efficacy and/or >10 mM potency); assay type: functional, cell-based
[8] = biological target: T2, Progesterone receptor; test: Effective concentration for human progesterone receptor in T47D human breast cancer cell; not active (<20% efficacy and/or >10 mM potency); details: cancer cell lines
[9] = biological target: T2, Progesterone receptor; remark: listed apart in the source
Description: Binding affinity at human progesterone receptor.

[10] = biological target: T2, Progesterone receptor; test: Binding towards human progesterone receptor; Not tested

| SMILES | Efficacy [1] | EC50 [2] | EC50 [3] [nM] | IC50 [4] [nM] | EC50 [5] | IC50 [6] | Efficacy [7] | EC50 [8] | Ki [9] [nM] | Ki [10] [nM] |
| --- | --- | --- | --- | --- | --- | --- | --- | --- | --- | --- |
| CC1=CC(C)(C)Nc2ccc3c(c21)COc1c(Cl)cccc1-3 | inactive | Not Active | 576 | 782 | – | – | – | – | – | – |
| CC1=CC(C)(C)Nc2ccc3c(c21)COc1cc(C(F)(F)F)ccc1-3 | inactive | – | – | – | Not Active | Not Active | inactive | Not Active | > 1000 | – |
| CC1=CC(C)(C)Nc2ccc3c(c21)COc1c-3cc(Br)c(C=O)c1F | – | – | 576 | – | – | – | – | – | – | 290 |
